Measurements from patent US8367659B2, “Oxazinyl isoflavonoid compounds, medicaments and use” (Marshall Edwards, Inc., priority 2007, dated 2013).

How the values were obtained:
THP-1 cells = assay: Cell viability of THP-1 cells in the NFκB assay; assay type: cell-based, human; conditions: 50 μM and 100 μM
Experimental: In brief, genetically modified THP-1 cells were seeded into wells of a 96-well plate (50×10^3 cells/well) in the presence of RPMI 1640 medium (70 μl). TNFα was added to each well (10 μl) to give a final concentration of 7.5 ng/ml. Dialyzed bovine serum was added (10 μl). Compounds dissolved in DMSO (10 μL) were then added (5 wells for each compound). Each plate contained a no-cell control (4 wells), a no-serum control (4 wells) and two serum controls. Plates were incubated for 5 h at 37° C. to allow for NFκB-stimulated beta-lactamase production. LiveBLAzer™ FRET B/G Substrate (CCF4-AM) substrate was then added to assay. CCF4-AM is a Forster resonance energy transfer (FRET) based substrate for beta-lactamase developed by Invitrogen Corp. Once CCFA-AM enters a cell, it is converted to negatively charged CCF4 by endogenous esterases. Excitation of this substrate at 409 nm leads to efficient FRET between the coumarin and fluorescein moieties, resulting in a green fluorescence detectable at 530 nm. The presence of beta-lactamase leads to cleavage of CCF4 and results in a loss of FRET, resulting in a robust blue fluorescent signal detectable at 460 nm. Thus, activity of beta-lactamase (a marker of NFκB-promoter activity) is measured as a product to substrate ratio (blue/green fluorescence ratio: 460 nm/530 nm). […]

ICAM-1 = assay: TNFα-induced ICAM-1 expression in human arterial endothelial cells (ELISA); assay type: cell-based
Experimental: Inhibition of TNFα-stimulated endothelial cell activation by compounds was assessed by measuring surface expression of cell adhesion molecules with an ELISA method. Human arterial endothelial cells (HAEC) in growth medium (Cell Applications Inc.) were seeded into 96-well plates at a density of 10,000 cells per well. Plates were incubated overnight at 37° C. in a humidified incubator to allow for cells to become confluent. On the morning of the experiment, TNFα (10 μl, 2 ng/ml) was added to each well, which contained 100 μl of medium. Compounds were diluted in DMSO-containing medium (2.5% DMSO) to give a compound concentration of 100 and 300 μM. Compounds were added to wells so that final concentrations were 10 and 30 μM. DMSO-containing medium alone was added to zero concentration control wells. All samples were measured in quadruplicate (4 wells per treatment).
After incubation with compound, medium was removed and cells were probed with either non-specific IgG or specific mouse antibodies against E-selectin, ICAM or VCAM (BD Biosciences—0.1 μg in 100 μL buffered saline with 10% heat-inactivated human serum). Adhesion molecule expression was detected by addition of sheep anti-mouse antibody/horseradish peroxidase conjugate. […] Optical density was measured at 405 nm with an ELISA reader (Titertek Multiscan, Flow Laboratories). […]

AA-induced ear oedema = assay: Arachidonic acid (AA)-induced ear swelling in mice; assay type: in vivo, BALB/c mice; conditions: 25 mg/kg i/p; 1 h post-AA application
Experimental: Groups of 5-6 female BALB/c mice (ARC, WA, Australia), weighing 15-21 g were injected intraperitoneally (i/p) with test compound at 25 mg/kg delivered in polyethylene glycol (PEG) 400: phosphate buffered saline (PBS) 1:1 or ethanol: propanediol: PBS 4:9:7 either 30 min prior to or immediately before the inflammogen was applied to the ears. Mice were anaesthetised using isoflurane and baseline thickness of both ears was measured using a spring micrometer. Each mouse received a total of 20 μL of either AA in ethanol (50 mg/ml or 200 mg/ml) or PMA in either ethanol or acetone (0.2 mg/ml) applied to the inner and outer surfaces of each pinna (i.e. 0.5 mg or 2 mg AA or 2 μg PMA per ear). Mice were anaesthetised again to re-measure the ears at 1 h post-AA application and 5 h after PMA. The difference in ear swelling pre- and post-application of inflammogen for each ear was calculated, and the average for the two ears of each mouse taken. The difference in mean swelling of each test group compared to the group given vehicle alone was calculated using a general ANOVA using Dunnett's Multiple Comparison test when multiple compounds were tested in the one experiment or a two-tailed […] t-test when only one compound was tested (Prism 4, Graphpad Software). The data has been presented graphically as the mean percentage inhibition of oedema, calculated as: […]. Results

NCI-H460 = assay: Anti-cancer activity, NCI-H460 large cell lung cancer cells (MTT); assay type: cell-based; conditions: Homo sapiens, NCI-H460, 120 h, 5 days, read-out: IC50 μM, NCI-H460 Lung (NSCLC)

SMILES | cell viability (THP-1 cells) | inhibition of ICAM expression (ICAM-1; TNFα-stimulated HAEC, 4 hrs, FIG. 18) | % Change compared with vehicle (AA-induced ear oedema) [%] | Change in ear thickness (mean ± SD, × 0.01 mm) (AA-induced ear oedema) [× 0.01 mm] | IC50 (NCI-H460) [µM] | effect on TNFα-induced ICAM-1 expression (ICAM-1; HAEC, 10 μM found most appropriate for comparing)
Oc1ccc(C2=Cc3cc4c(cc3OC2)OCN(Cc2ccccc2)C4)cc1 [Compound 1, 4-(3-Benzyl-2,3,4,8-tetrahydrochromeno[6,7-e][1,3]oxazin-7-yl)phenol] | reduced cell viability | 10-50% | −18 | 20 ± 0.9 | 4.61 | –
CC(c1ccccc1)N1COc2cc3c(cc2C1)C=C(c1ccc(O)cc1)CO3 (stereo not shown) [Compound 2, 4-(3-(1-Phenylethyl)-2,3,4,8-tetrahydrochromeno[6,7-e][1,3]oxazin-7-yl)phenol] | reduced cell viability | – | −39 | 15.9 ± 4.2 | 8.77 ± 3.7 | –
Oc1cccc(C2=Cc3ccc(O)cc3OC2)c1 [Compound 37-DHE, 3′,7-dihydroxy-isoflav-3-ene, reference compound] | – | – | – | – | – | less pronounced
